Source: the NIST ThermoML archive (doi:10.1021/je900570e)
Where “and” joins values, the source holds several entries; their conditions need not be identical. Identical values can stand only once. Numbers after ± are expanded uncertainties.

Experiments:
[1] = xn = mol fraction of the nth substance listed; conditions: Liquid, x2 = 0; for viscosity / speed of sound: 101 kPa; for viscosity: Capillary tube (Ostwald / Ubbelohde) method; for speed of sound: Frequency=2 MHz, Pulse-echo method; for mass density: 101.33 kPa, Vibrating tube method
[2] = Liquid; for mass density: 101.33 kPa, Vibrating tube method; for viscosity / speed of sound: 101 kPa; for viscosity: Capillary tube (Ostwald / Ubbelohde) method; for speed of sound: Frequency=2 MHz, Pulse-echo method

Row | Structure (SMILES) | viscosity ([1]; 303.15 K) [mPa·s] | speed of sound ([1]; 303.15 K) [m/s] | mass density ([1]; 303.15 K) [kg/m3] | viscosity ([1]; 308.15 K) [mPa·s] | speed of sound ([1]; 308.15 K) [m/s] | mass density ([1]; 308.15 K) [kg/m3] | viscosity ([1]; 313.15 K) [mPa·s] | speed of sound ([1]; 313.15 K) [m/s] | mass density ([1]; 313.15 K) [kg/m3] | mass density ([2]; 298.15 K) [kg/m3] | viscosity ([2]; 303.15 K) [mPa·s] | speed of sound ([2]; 303.15 K) [m/s] | mass density ([2]; 303.15 K) | viscosity ([2]; 308.15 K) [mPa·s] | speed of sound ([2]; 308.15 K) [m/s] | mass density ([2]; 308.15 K) [kg/m3] | viscosity ([2]; 313.15 K) [mPa·s] | speed of sound ([2]; 313.15 K) [m/s] | mass density ([2]; 313.15 K) [kg/m3] | viscosity ([2]; 298.15 K) [mPa·s]
1 | ClC=C(Cl)Cl [trichloroethene] + N#CCc1ccccc1 | 0.5172 ± 0.011 | 1014.7 ± 6.2 | 1447.5 ± 0.6 | 0.4992 ± 0.011 | 993.7 ± 6.1 | 1437.8 ± 0.6 | 0.4833 ± 0.011 | 982 ± 6 | 1430.4 ± 0.6 | – | – | – | – | – | – | – | – | – | – | –
2 | ClC(Cl)C(Cl)Cl [1,1,2,2-tetrachloroethane] | – | – | – | – | – | – | – | – | – | 1586.8 ± 1.4 | 1.456 ± 0.017 | 1134.7 ± 7 | 1579.6 ± 1.4 kg/m3 | 1.354 ± 0.017 | 1115.5 ± 6.9 | 1570.6 ± 1.4 | 1.261 ± 0.016 | 1095.5 ± 6.8 | 1563.7 ± 1.4 | –
3 | ClCCCl [1,2-dichloroethane] + N#CCc1ccccc1 | 0.7237 ± 0.012 | 1174 ± 7.1 | 1238.7 ± 0.4 | 0.6737 ± 0.011 | 1164.8 ± 7.1 | 1230.5 ± 0.4 | 0.6419 ± 0.011 | 1153.5 ± 7 | 1223.7 ± 0.4 | – | – | – | – | – | – | – | – | – | – | –
4 | ClCC(Cl)Cl [1,1,2-trichloroethane] | – | – | – | – | – | – | – | – | – | – | 1.019 ± 0.016 | 1129.2 ± 7.1 | 1425 ± 1.8 kg/m3 | 0.9483 ± 0.015 | 1115.9 ± 7 | 1416.1 ± 1.8 | 0.8888 ± 0.015 | 1096.1 ± 6.9 | 1409.6 ± 1.8 | 1.105 ± 0.016
5 | N#CCc1ccccc1 [benzeneacetonitrile] | – | – | – | – | – | – | – | – | – | – | 1.761 ± 0.023 | 1519.2 ± 9.4 | 1008.83 ± 0.86 kg/m3 and 1008.8 ± 0.9 kg/m3 | 1.602 ± 0.021 | 1512.9 ± 9.3 | 1004.1 ± 0.8 | 1.489 ± 0.02 | 1503.4 ± 9.3 | 999.5 ± 0.8 | –
6 | ClC=C(Cl)Cl [trichloroethene] | – | – | – | – | – | – | – | – | – | 1455.9 ± 0.6 | 0.5172 ± 0.011 | 1014.7 ± 6.2 | 1447.5 ± 0.6 kg/m3 | 0.4992 ± 0.011 | 993.7 ± 6.1 | 1437.8 ± 0.6 | 0.4833 ± 0.011 | 982 ± 6 | 1430.4 ± 0.6 | 0.527 ± 0.011
